Data: US20140206017A1, “LYSYL OXIDASE-LIKE 2 ASSAY AND METHODS OF USE THEREOF” (priority 2011, published 2014)
“And” between values parts separate entries of the source, which are not always exact repeats. Equal values may be shown once. Where a name gives a salt, the structure may show the parent alone.

Legend:
[1] = test system: liver fibrosis in subjects with chronic hepatitis B (CHB); assay: Liver biopsy (Ishak fibrosis score) in CHB subjects before and after 240 weeks of TDF; type: in vivo, human; conditions: for Chance of regression of cirrhosis at week 240: cirrhotic subjects
Description: Serum LOXL2 levels were assessed in subjects with chronic hepatitis B (CHB) and liver fibrosis, both before treatment and after 240 weeks of treatment with 300 mg tenofovir disoproxil fumarate (TDF). Liver biopsies were taken from 348 human subjects with CHB, prior to treatment and after 240 weeks of treatment with TDF. The biopsies were scored by pathologists using the Ishak scale for assessment of fibrosis. […] Of the 96 subjects who began the study with biopsy-proven cirrhosis, 74% had regression of cirrhosis after 240 weeks of treatment. […] At week 240 following treatment, 42 of these 81 subjects had cirrhosis regression, 16 had persistent cirrhosis, 2 had progressed to cirrhosis over the course of treatment, 18 were non-cirrhotic subjects with no change in fibrosis, and 3 were non-cirrhotic subjects with at least a 2-point reduction in fibrosis as measured by Ishak.

[2] = test system: serum LOXL2; assay: Serum LOXL2 by ELISA at baseline and week 240 of TDF treatment in CHB subjects; type: in vivo, human; conditions: for Median serum LOXL2: LOQ = 440 pg/mL
Description: At week 240 following treatment, 42 of these 81 subjects had cirrhosis regression, 16 had persistent cirrhosis, 2 had progressed to cirrhosis over the course of treatment, 18 were non-cirrhotic subjects with no change in fibrosis, and 3 were non-cirrhotic subjects with at least a 2-point reduction in fibrosis as measured by Ishak.

[3] = test system: cancer; assay: Cancer patients treated with anti-LOXL2 antibody AB0024: time to progression; type: in vivo, human; conditions: individual cancer patients
Description: Blood samples were obtained at Day 1 on which anti-LOXL2 treatment began (sample taken before anti-LOXL2 treatment); and on days 29 and 57 following the beginning of anti-LOXL2 treatment.

[4] = molecular target: T1, LOXL2 (Homo sapiens, UniProt Q9Y4K0); assay: LOXL2 immunoassay of plasma/serum from patients receiving AB0024; type: in vivo; conditions: samples day 1 (pre-dose), 29 and 57
T1 construct: from tissue; host or cells: plasma and serum of human cancer patients
T1 sequence (Q9Y4K0 26-774): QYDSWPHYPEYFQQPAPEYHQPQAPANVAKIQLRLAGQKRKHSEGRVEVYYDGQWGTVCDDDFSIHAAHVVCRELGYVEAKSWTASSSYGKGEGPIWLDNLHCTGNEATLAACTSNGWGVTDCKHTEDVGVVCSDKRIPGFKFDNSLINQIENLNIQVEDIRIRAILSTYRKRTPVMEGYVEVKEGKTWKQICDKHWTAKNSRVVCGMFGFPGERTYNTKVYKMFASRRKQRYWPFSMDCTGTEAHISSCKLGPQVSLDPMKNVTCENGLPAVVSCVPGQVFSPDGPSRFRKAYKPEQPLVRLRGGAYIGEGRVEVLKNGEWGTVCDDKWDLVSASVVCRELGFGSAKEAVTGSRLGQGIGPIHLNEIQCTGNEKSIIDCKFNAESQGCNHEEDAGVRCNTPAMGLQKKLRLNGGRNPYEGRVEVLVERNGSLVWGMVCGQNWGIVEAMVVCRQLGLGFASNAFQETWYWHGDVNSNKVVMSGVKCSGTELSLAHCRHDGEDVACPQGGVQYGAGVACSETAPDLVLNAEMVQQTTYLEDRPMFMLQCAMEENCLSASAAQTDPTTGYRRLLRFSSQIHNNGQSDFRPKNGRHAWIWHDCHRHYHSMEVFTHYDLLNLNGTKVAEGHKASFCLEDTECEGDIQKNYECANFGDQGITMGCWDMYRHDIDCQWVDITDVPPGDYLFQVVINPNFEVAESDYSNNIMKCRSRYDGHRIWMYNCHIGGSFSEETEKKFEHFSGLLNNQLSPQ
Description: Standard single-spot uncoated electrode plates from MesoScale Discovery (MSD) (cat #L15XA-3) were coated overnight at 4° C. with a 30 μl volume of a solution of 3 μg/ml rabbit anti-human-LOXL2 polyclonal antibody formulated in phosphate-buffered saline (PBS). After coating, the wells of the plates were blocked by addition of a solution of 5% (w/v) Blocker A (MSD cat#R93AA-1) in PBS. After the blocking step, plates were washed 3 times in PBS containing 0.05% Tween-20 non-ionic detergent, using an automated plate washer. Human samples to be tested (serum or plasma) were prepared separately by diluting them 1:4 in PBS (1 part serum, 3 parts PBS). Samples were then added to each well of the plate. Samples were incubated with rotary shaking (300-600 rpm) for 2-3 hours at room temperature. After sample binding, the plates were again washed 3 times in PBS containing 0.05% Tween-20 detergent, using an automated plate washer. […]
1× Read Buffer T with Surfactants (MSD cat#R92TC-2) was added to each well, followed by immediate measurement of the plate on the MSD SectorImager 2400 instrument.
Test human samples were given a relative quantitative value of LOXL2 by comparison to the calibrator curve on the same assay plate, comprised of purified recombinant human LOXL2 protein (R&D Systems) added in known concentrations to human serum or plasma pooled from normal healthy donors. […]

[5] = Wk 240, Persistent Cirrhosis (n = 16), baseline 31%
[6] = baseline to Wk 240, Non-Cirrhotic No Δ (n = 18)
[7] = baseline to Wk 240, Persistent Cirrhosis (n = 16)
[8] = baseline to Wk 240, Reversed Cirrhosis (n = 42)

CC(C)OC(=O)OCOP(=O)(CO[C@H](C)Cn1cnc2c(N)ncnc21)OCOC(=O)OC(C)C [TDF, tenofovir disoproxil fumarate]
Subjects with improvement in, or no progression of, liver fibrosis ([1]; 348 CHB subjects, 300 mg, 240 weeks): 96.3% | Chance of regression of cirrhosis at week 240 ([1]; baseline serum LOXL2 above 3000 pg/mL): 29% | Chance of regression of cirrhosis at week 240 ([1]; baseline serum LOXL2 between 1500 and 3000 pg/mL): 70% | Chance of regression of cirrhosis at week 240 ([1]; baseline serum LOXL2 less than 1500 pg/mL): 88% | Patients with regression or improvement of Ishak fibrosis score ([1]; of the 60 patients with baseline cirrhosis, 240 weeks): 72% | Subjects with regression of cirrhosis ([1]; of the 96 subjects with biopsy-proven cirrhosis at start, after 240 weeks): 74% | Mean serum LOXL2 ([2]; Week 240, Ishak Stage 0-3, N 56 (baseline 510.2, N 18)): 746.8 pg/mL | Mean serum LOXL2 ([2]; Week 240, Ishak Stage 4-6, N 25 (baseline 3298.2, N 63)): 753.5 pg/mL | Mean serum LOXL2 ([2]; Week 240, all subjects N 81 (baseline 2678.6)): 748.9 pg/mL | Subjects with serum LOXL2 >3000 pg/mL ([2]; Wk 240, Non-Cirrhotic No Δ (n = 18), baseline 6%): 0 (0%) | Subjects with serum LOXL2 <LoD ([2]; Wk 240, Non-Cirrhotic No Δ (n = 18), baseline 22%): 8 (44%) | Subjects with serum LOXL2 <LoQ ([2]; Wk 240, Non-Cirrhotic No Δ (n = 18), baseline 56%): 14 (78%) | Subjects with serum LOXL2 <1000 pg/mL ([2]; Wk 240, Non-Cirrhotic No Δ (n = 18), baseline 72%): 15 (83%) | Mean serum LOXL2 ([2]; Wk 240, Non-Cirrhotic No Δ (n = 18), baseline 798.4): 436.8 pg/mL | Median serum LOXL2 ([2]; Wk 240, Non-Cirrhotic No Δ (n = 18), baseline <LOQ): <LOQ | Subjects with serum LOXL2 <LoD ([2]; Wk 240, Persistent Cirrhosis (n = 16), baseline 6%): 2 (13%) | Subjects with serum LOXL2 <LoQ ([2]; Wk 240, Persistent Cirrhosis (n = 16), baseline 13%): 8 (50%) | Subjects with serum LOXL2 <1000 pg/mL [2, 5]: 14 (88%) | Subjects with serum LOXL2 >3000 pg/mL [2, 5]: 0 (0%) | Median serum LOXL2 ([2]; Wk 240, Persistent Cirrhosis (n = 16), baseline 1863): LOQ | Mean serum LOXL2 ([2]; Wk 240, Persistent Cirrhosis (n = 16), baseline 9124.1): 603.8 pg/mL | Subjects with serum LOXL2 <LoD ([2]; Wk 240, Reversed Cirrhosis (n = 42), baseline 2%): 13 (31%) | Subjects with serum LOXL2 >3000 pg/mL ([2]; Wk 240, Reversed Cirrhosis (n = 42), baseline 5%): 3 (7%) | Subjects with serum LOXL2 <LoQ ([2]; Wk 240, Reversed Cirrhosis (n = 42), baseline 10%): 29 (69%) | Subjects with serum LOXL2 <1000 pg/mL ([2]; Wk 240, Reversed Cirrhosis (n = 42), baseline 48%): 35 (83%) | Median serum LOXL2 ([2]; Wk 240, Reversed Cirrhosis (n = 42), baseline 1073): <LOQ | Mean serum LOXL2 ([2]; Wk 240, Reversed Cirrhosis (n = 42), baseline 1355.0): 922.6 pg/mL | Subjects with Decrease in serum LOXL2 [2, 6]: 9 (50%) | Subjects with Increase in serum LOXL2 [2, 6]: 2 (11%) | Subjects with Decrease in serum LOXL2 [2, 7]: 14 (88%) | Subjects with Increase in serum LOXL2 [2, 7]: 0 (0%) | Subjects with Decrease in serum LOXL2 [2, 8]: 37 (88%) | Subjects with Increase in serum LOXL2 [2, 8]: 5 (12%) | Cirrhotic subjects with a reduction in LOXL2 levels ([2]; baseline to week 240): 88% | Subjects with a reduction in serum LOXL2 levels ([2]; of the 81 subjects, baseline to week 240): 79% | Subjects with no change in LOXL2 levels ([2]; of the 81 subjects, each with baseline below limit of quantitation): 11%

B1: AB0024: humanized anti-LOXL2 monoclonal antibody; inhibits LOXL2 enzymatic activity, binds epitope within SRCR3-4; VH SEQ ID NO:8, VL SEQ ID NO:9 (antibody, V domains shown)
VH: QVQLVQSGAEVKKPGASVKVSCKASGYAFTYYLIEWVRQAPGQGLEWIGVINPGSGGTNYNEKFKGRATITADKSTSTAYMELSSLRSEDTAVYFCARNWMNFDYWGQGTTVTVSS
VL: DIVMTQTPLSLSVTPGQPASISCRSSKSLLHSNGNTYLYWFLQKPGQSPQFLIYRMSNLASGVPDRFSGSGSGTDFTLKISRVEAEDVGVYYCMQHLEYPYTFGGGTKVEIK
Time to progression ([3]; dose level 1 mpk): 44 days and Stable and 57 days | Time to progression ([3]; dose level 3 mpk): 38 days and 56 days and 42 days | Time to progression ([3]; dose level 10 mpk): 57 days and 30 days and 51 days | Effect of antibody administration on LOXL2 signal in plasma/serum [4]: did not clear or mask the LOXL2 signal
